Laboratory results as given in the supplement of paper PMC10307832.

Key:
Test in all cases: relative viability (nuclei count vs DMSO), 5 days (fraction); higher = more cells survive
NCI-H1793 = tested on: NCI-H1793
Outline: (§1)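 The day after seeding in 1536-well plates, lung cancer cell lines were treated by pin tool with a single drug, or with a fixed anchor-drug dose together with five library-drug doses (not always all listed) in √10 steps. After 5 days, a combined fix-and-stain solution (final 0.05% Triton X-100, 1% formaldehyde, 1 ug/ml Hoechst) was added. Nuclei counted on 4× images gave relative viability as treated counts over vehicle counts, reported as the median of duplicate plates.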

NCI-H3122 = tested on: NCI-H3122
Outline: as §1

LCLC-97TM1 = tested on: LCLC-97TM1
Outline: as §1

NCI-H727 = tested on: NCI-H727
Outline: as §1

CAL-12T = tested on: CAL-12T
Outline: as §1

NCI-H2405 = tested on: NCI-H2405
Outline: as §1

NCI-H1395 = tested on: NCI-H1395
Outline: as §1

NCI-H647 = tested on: NCI-H647
Outline: as §1

LXF-289 = tested on: LXF-289
Outline: as §1

NCI-H2087 = tested on: NCI-H2087
Outline: as §1

RERF-LC-KJ = tested on: RERF-LC-KJ
Outline: as §1

BEN = tested on: BEN
Outline: as §1

201T = tested on: 201T
Outline: as §1

NCI-H1355 = tested on: NCI-H1355
Outline: as §1

HCC-827 = tested on: HCC-827
Outline: as §1

NCI-H322M = tested on: NCI-H322M
Outline: as §1

HCC-44 = tested on: HCC-44
Outline: as §1

HOP-62 = tested on: HOP-62
Outline: as §1

NCI-H1437 = tested on: NCI-H1437
Outline: as §1

LCLC-103H = tested on: LCLC-103H
Outline: as §1

`COc1cc(N2CCC(C(N)=O)CC2)ccc1Nc1nc(N)c(Cl)c(Nc2ccccc2S(=O)(=O)C(C)C)n1` [HG-5-88-01] + NC(=O)Nc1cc(-c2cccc(F)c2)sc1C(=O)N[C@H]1CCCNC1 [AZD7762] (partner 0.2 µM) was tested, and the relative viability (NCI-H1793; first compound 0.04 µM) was 0.557, the relative viability (NCI-H1793; first compound 0.1265 µM) was 0.409 and the relative viability (NCI-H1793; first compound 0.4 µM) was 0.379. It also gave a relative viability (NCI-H1793; first compound 1.265 µM) of 0.452, a relative viability (NCI-H1793; first compound 4 µM) of 0.186 and a relative viability (NCI-H3122; first compound 0.04 µM) of 0.744. It also gave a relative viability (NCI-H3122; first compound 0.1265 µM) of 0.376, a relative viability (NCI-H3122; first compound 0.4 µM) of 0.315 and a relative viability (NCI-H3122; first compound 1.265 µM) of 0.24. It also gave a relative viability (NCI-H3122; first compound 4 µM) of 0.114, a relative viability (LCLC-97TM1; first compound 0.04 µM) of 0.251 and a relative viability (LCLC-97TM1; first compound 0.1265 µM) of 0.262. It also gave a relative viability (LCLC-97TM1; first compound 0.4 µM) of 0.231, a relative viability (LCLC-97TM1; first compound 1.265 µM) of 0.225 and a relative viability (LCLC-97TM1; first compound 4 µM) of 0.0952. It also gave a relative viability (NCI-H727; first compound 0.04 µM) of 0.729, a relative viability (NCI-H727; first compound 0.1265 µM) of 0.633 and a relative viability (NCI-H727; first compound 0.4 µM) of 0.597. It also gave a relative viability (NCI-H727; first compound 4 µM) of 0.377, a relative viability (CAL-12T; first compound 0.04 µM) of 0.71 and a relative viability (CAL-12T; first compound 0.1265 µM) of 0.607. It also gave a relative viability (CAL-12T; first compound 0.4 µM) of 0.501, a relative viability (CAL-12T; first compound 1.265 µM) of 0.539 and a relative viability (CAL-12T; first compound 4 µM) of 0.399. It also gave a relative viability (NCI-H2405; first compound 0.04 µM) of 0.769, a relative viability (NCI-H2405; first compound 0.1265 µM) of 0.659 and a relative viability (NCI-H2405; first compound 0.4 µM) of 0.569. For the same compound, the relative viability (NCI-H2405; first compound 1.265 µM) was 0.638, the relative viability (NCI-H2405; first compound 4 µM) was 0.504 and the relative viability (NCI-H1395; first compound 0.04 µM) was 0.366. The relative viability (NCI-H1395; first compound 0.1265 µM) was 0.403, the relative viability (NCI-H1395; first compound 0.4 µM) was 0.418 and the relative viability (NCI-H1395; first compound 1.265 µM) was 0.384. The relative viability (NCI-H1395; first compound 4 µM) was 0.362, the relative viability (NCI-H647; first compound 0.04 µM) was 0.455 and the relative viability (NCI-H647; first compound 0.1265 µM) was 0.405. The relative viability (NCI-H647; first compound 0.4 µM) was 0.472, the relative viability (NCI-H647; first compound 1.265 µM) was 0.394 and the relative viability (NCI-H647; first compound 4 µM) was 0.433. It also gave a relative viability (LXF-289; first compound 0.04 µM) of 1.11, a relative viability (LXF-289; first compound 0.1265 µM) of 1.05 and a relative viability (LXF-289; first compound 0.4 µM) of 1.06. It also gave a relative viability (LXF-289; first compound 1.265 µM) of 1.12, a relative viability (LXF-289; first compound 4 µM) of 1.11 and a relative viability (NCI-H2087; first compound 0.04 µM) of 1.23. The relative viability (NCI-H2087; first compound 0.1265 µM) was 1.26, the relative viability (NCI-H2087; first compound 0.4 µM) was 1.45 and the relative viability (NCI-H2087; first compound 1.265 µM) was 1.14. It also gave a relative viability (NCI-H2087; first compound 4 µM) of 1.17, a relative viability (RERF-LC-KJ; first compound 0.04 µM) of 0.995 and a relative viability (RERF-LC-KJ; first compound 0.1265 µM) of 1.07. For the same compound, the relative viability (RERF-LC-KJ; first compound 0.4 µM) was 0.979, the relative viability (RERF-LC-KJ; first compound 1.265 µM) was 0.747 and the relative viability (RERF-LC-KJ; first compound 4 µM) was 0.563. The relative viability (BEN; first compound 0.04 µM) was 0.47, the relative viability (BEN; first compound 0.1265 µM) was 0.69 and the relative viability (BEN; first compound 0.4 µM) was 0.635. It also gave a relative viability (BEN; first compound 1.265 µM) of 0.615, a relative viability (BEN; first compound 4 µM) of 0.576 and a relative viability (201T; first compound 0.04 µM) of 0.54. It also gave a relative viability (201T; first compound 0.1265 µM) of 0.62, a relative viability (201T; first compound 1.265 µM) of 0.631 and a relative viability (201T; first compound 4 µM) of 0.374. For the same compound, the relative viability (NCI-H1355; first compound 0.04 µM) was 0.714, the relative viability (NCI-H1355; first compound 0.1265 µM) was 0.731 and the relative viability (NCI-H1355; first compound 0.4 µM) was 0.762. The relative viability (NCI-H1355; first compound 1.265 µM) was 0.69, the relative viability (NCI-H1355; first compound 4 µM) was 0.474 and the relative viability (HCC-827; first compound 0.04 µM) was 0.313. For the same compound, the relative viability (HCC-827; first compound 0.1265 µM) was 0.184, the relative viability (HCC-827; first compound 0.4 µM) was 0.167 and the relative viability (HCC-827; first compound 1.265 µM) was 0.129. It also gave a relative viability (HCC-827; first compound 4 µM) of 0.123, a relative viability (NCI-H322M; first compound 0.04 µM) of 0.665 and a relative viability (NCI-H322M; first compound 0.1265 µM) of 0.61. It also gave a relative viability (NCI-H322M; first compound 0.4 µM) of 0.465, a relative viability (NCI-H322M; first compound 1.265 µM) of 0.454 and a relative viability (NCI-H322M; first compound 4 µM) of 0.466. The relative viability (HCC-44; first compound 0.04 µM) was 0.959, the relative viability (HCC-44; first compound 0.1265 µM) was 0.999 and the relative viability (HCC-44; first compound 0.4 µM) was 0.995. For the same compound, the relative viability (HCC-44; first compound 1.265 µM) was 1.03, the relative viability (HCC-44; first compound 4 µM) was 0.957 and the relative viability (HOP-62; first compound 0.04 µM) was 0.463. For the same compound, the relative viability (HOP-62; first compound 0.1265 µM) was 0.736, the relative viability (HOP-62; first compound 0.4 µM) was 0.654 and the relative viability (HOP-62; first compound 1.265 µM) was 0.55. For the same compound, the relative viability (HOP-62; first compound 4 µM) was 0.584, the relative viability (NCI-H1437; first compound 0.04 µM) was 1.13 and the relative viability (NCI-H1437; first compound 0.1265 µM) was 1.13. It also gave a relative viability (NCI-H1437; first compound 0.4 µM) of 1.07, a relative viability (NCI-H1437; first compound 4 µM) of 1.2 and a relative viability (LCLC-103H; first compound 0.04 µM) of 0.803. The relative viability (LCLC-103H; first compound 0.1265 µM) was 0.761, the relative viability (LCLC-103H; first compound 0.4 µM) was 0.616 and the relative viability (LCLC-103H; first compound 1.265 µM) was 0.828. It also gave a relative viability (LCLC-103H; first compound 4 µM) of 0.697.
